The record followed here is patent publication US20240131168A1, “NAPHTHALENE RING-CONTAINING COMPOUND, PHARMACEUTICAL COMPOSITION CONTAINING SAME, AND USE THEREOF” (JIANGSU YAHONG MEDITECH CO., LTD., priority 2021, published 2024).

What all share (type): cell-based
Test [1] has as its system MDA-MB-468. In words: CellTiter-Glo cell proliferation inhibition, MDA-MB-468. Conditions: Homo sapiens, 144 h; MDA-MB-468 (CTG), 6 days, starting concentration 10 μM; read-out: IH % max (maximum inhibition percentage). Background: ATP-based viability assays read luminescence as a measure of living cells.
In test [2] the test system is MCF-7 ER^Y537S. Briefly: CellTiter-Glo cell proliferation inhibition, MCF-7 ER^Y537S. Conditions: Homo sapiens, MCF7, 144 h; MCF-7 ER^Y537S (CTG), 6 days, starting concentration 10 μM; read-out: IH % max (maximum inhibition percentage). The gist of the method:
(§1)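 MCF-7, TamR-MCF-7, and CRISPR-edited MCF-7 ER D538G or Y537S cells were seeded at 1,000 or 2,000 cells/well in EMEM and cultured 24 h. They were then exposed to a 4-fold, 10-point series (top 10 µM before addition to wells) for 6 days or 72 h at 37 °C. CellTiter-Glo luminescence gave IC50 and maximum % inhibition.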

The subject of test [3] is TamR-MCF-7. Briefly: CellTiter-Glo cell proliferation inhibition, TamR-MCF-7. The note with it: 144 h; TamR-MCF-7 (CTG), 6 days, starting concentration 10 μM; read-out: IH % max (maximum inhibition percentage). Put shortly: as §1
The subject of test [4] is MDA-MB-231. Briefly: CellTiter-Glo cell proliferation inhibition, MDA-MB-231. The note with it: Homo sapiens, 144 h; MDA-MB-231 (CTG), 6 days, starting concentration 10 μM; read-out: IH % max (maximum inhibition percentage).

Broadly, the inhibition is the percentage by which the read-out fell short of the control. `CCN(CCOc1ccc(Oc2c(-c3ccc(S(C)(=O)=O)cc3)ccc3cc(O)ccc23)cc1)CC(=O)N1CCN(c2ccc3c(c2)C(=O)N(C2CCC(=O)NC2=O)C3=O)CC1` (stereo not drawn) [Compound D8, 2-(2,6-dioxopiperidin-3-yl)-5-(4-(N-ethyl-N-(2-(4-((6-hydroxy-2-(4-(methylsulfonyl)phenyl)naphthalen-1-yl)oxy)phenoxy)ethyl)glycyl)piperazin-1-yl)isoindoline-1,3-dione]: the inhibition at up to 10 µM was 68% in test [1], 33% in test [2] and 35% in test [3].

For `C[C@@H]1CN(CCOc2ccc(Oc3c(-c4ccc(S(C)(=O)=O)cc4)ccc4cc(O)ccc34)cc2)[C@@H](C)CN1CCOCC(=O)N1CCN(c2ccc3c(c2)CN(C2CCC(=O)NC2=O)C3=O)CC1` (stereo partly drawn) [Compound D9, 3-(5-(4-(2-(2-((2R,5S)-4-(2-(4-((6-hydroxy-2-(4-(methylsulfonyl)phenyl)naphthalen-1-yl)oxy)phenoxy)ethyl)-2,5-dimethylpiperazin-1-yl)ethoxy)acetyl)piperazin-1-yl)-1-oxoisoindolin-2-yl)piperidine-2,6-dione], the figures for the inhibition at up to 10 µM in test [1], in test [2] and in test [3] were 60%, 34% and 31%, respectively.

Regarding `CS(=O)(=O)c1ccc(-c2ccc3cc(O)ccc3c2Oc2ccc(N3CCN(CCCCCOCC(=O)N4CCN(c5ccc6c(c5)CN(C5CCC(=O)NC5=O)C6=O)CC4)CC3)cc2)cc1` (stereo not drawn) [Compound D11, 3-(5-(4-(2-((5-(4-(4-((6-hydroxy-2-(4-(methylsulfonyl)phenyl)naphthalen-1-yl)oxy)phenyl)piperazin-1-yl)pentyl)oxy)acetyl)piperazin-1-yl)-1-oxoisoindolin-2-yl)piperidine-2,6-dione], the inhibition at up to 10 µM in test [2] turned out to be 52%.

Consider `C[C@@H]1CN(CCOCC(=O)N2CCN(c3ccc4c(c3)C(=O)N(C3CCC(=O)NC3=O)C4=O)CC2)[C@@H](C)CN1CCOc1ccc(Oc2c(-c3ccc(S(C)(=O)=O)cc3)ccc3cc(O)ccc23)cc1` (stereo partly drawn) [Compound D15, 2-(2,6-dioxopiperidin-3-yl)-5-(4-(2-(2-((2S,5R)-4-(2-(4-((6-hydroxy-2-(4-(methylsulfonyl)phenyl)naphthalen-1-yl)oxy)phenoxy)ethyl)-2,5-dimethylpiperazin-1-yl)ethoxy)acetyl)piperazin-1-yl)isoindoline-1,3-dione], for which the inhibition at up to 10 µM in test [2] worked out at 46%.

Regarding `CS(=O)(=O)c1ccc(-c2ccc3cc(O)ccc3c2Oc2ccc(OCCOCCOCCOCCN3CCN(c4ccc5c(c4)C(=O)N(C4CCC(=O)NC4=O)C5=O)CC3)cc2)cc1` (stereo not drawn) [Compound D19], the inhibition at up to 10 µM in test [3] turned out to be 39%.

Take `CS(=O)(=O)c1ccc(-c2ccc3cc(O)ccc3c2Oc2ccc(OCCOCCOCCN3CCN(c4ccc5c(c4)C(=O)N(C4CCC(=O)NC4=O)C5)CC3)cc2)cc1` (stereo not drawn) [Compound D22, 3-(6-(4-(2-(2-(2-(4-((6-hydroxy-2-(4-(methylsulfonyl)phenyl)naphthalen-1-yl)oxy)phenoxy)ethoxy)ethoxy)ethyl)piperazin-1-yl)-1-oxoisoindolin-2-yl)piperidine-2,6-dione]: the inhibition at up to 10 µM in test [4] came out at 36%; in test [3], 33%.

Take `CCN(CCOCCOCCN1CCN(c2ccc3c(c2)C(=O)N(C2CCC(=O)NC2=O)C3=O)CC1)CCOc1ccc(Oc2c(-c3ccc(S(C)(=O)=O)cc3)ccc3cc(O)ccc23)cc1` (stereo not drawn) [Compound D28, 2-(2,6-dioxopiperidin-3-yl)-5-(4-(2-(2-(2-(ethyl(2-(4-((6-hydroxy-2-(4-(methylsulfonyl)phenyl)naphthalen-1-yl)oxy)phenoxy)ethyl)amino)ethoxy)ethoxy)ethyl)piperazin-1-yl)isoindoline-1,3-dione]: the inhibition at up to 10 µM in test [4] is 68%; in test [2], 49%; in test [3] it was 42%.

Consider `CS(=O)(=O)c1ccc(-c2ccc3cc(O)ccc3c2Oc2ccc(OCCOCCOCCN3CCN(c4ccc5c(c4)CN(C4CCC(=O)NC4=O)C5=O)CC3)cc2)cc1` (stereo not drawn) [Compound D30], for which the inhibition at up to 10 µM in test [3] worked out at 30%.

In the case of `CCN(CCCCCN(C)CC(=O)N1CCN(c2ccc3c(c2)C(=O)N(C2CCC(=O)NC2=O)C3=O)CC1)CCOc1ccc(Oc2c(-c3ccc(S(C)(=O)=O)cc3)ccc3cc(O)ccc23)cc1` (stereo not drawn) [Compound D31, 2-(2,6-dioxopiperidin-3-yl)-5-(4-(N-(5-(ethyl(2-(4-((6-hydroxy-2-(4-(methylsulfonyl))phenyl)naphthalen-1-yl)oxy)phenoxy)ethyl)aminopentyl)-N-methylglycyl)piperazin-1-yl)isoindoline-1,3-dione], the inhibition at up to 10 µM in test [4] is 56%; in test [1] it was 100%; in test [2], 73%.

Regarding `CCN(CCOc1ccc(Oc2c(-c3ccc(S(C)(=O)=O)cc3)ccc3cc(O)ccc23)cc1)C(=O)c1ccc(CCC2CCN(C3CCN(c4ccc5c(c4)C(=O)N(C4CCC(=O)NC4=O)C5=O)CC3)CC2)cc1` (stereo not drawn) [Compound D34, 4-(2-(1′-(2-(2,6-dioxopiperidin-3-yl)-1,3-dioxoisoindolin-5-yl)-[1,4′-bipiperidin]-4-yl)ethyl)-N-ethyl-N-(2-(4-((6-hydroxy-2-(4-(methylsulfonyl)phenyl)naphthalen-1-yl)oxy)phenoxy)ethyl)benzamide], the values for the inhibition at up to 10 µM in test [4], in test [2] and in test [3] were 37%, 60% and 41%, respectively.
